Data published in PubChem BioAssay (NCI).
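Compound exposure: 48 hours, 5 concentrations, 96-well plates. TGI denotes the concentration required for complete inhibition of growth.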

What was measured:
Test in all cases: NCI anticancer screen, dose series, 48 h
[1] = system: OVCAR-4 ovarian
[2] = system: UACC-257 melanoma
[3] = system: OVCAR-5 ovarian
[4] = system: UACC-62 melanoma
[5] = system: NCI/ADR-RES ovarian
[6] = system: HL-60(TB) leukemia
[7] = system: MCF7 breast
[8] = system: HT29 colon
[9] = system: MDA-MB-231 breast
[10] = system: IGROV1 ovarian
[11] = system: CCRF-CEM leukemia
[12] = system: MALME-3M melanoma

Compound	TGI [1]	TGI [2]	TGI [3]	TGI [4]	TGI [5]	TGI [6]	TGI [7]	TGI [8]	TGI [9]	TGI [10]	TGI [11]	TGI [12]
C=CC[C@H]1[C@H](O[Si](C)(C)C(C)(C)C)C=CC(=O)[C@@H]1CC(=O)N(Cc1ccccc1)Cc1ccccc1	> 100 µM	65.8 µM	> 100 µM	> 100 µM	80.6 µM	36.5 µM	> 100 µM	29.2 µM	41.2 µM	> 100 µM	> 100 µM	
CC[C@@H](/C=C\CCC1(C[C@H](O)CCC=C(C)C)OCCO1)O[Si](C(C)C)(C(C)C)C(C)C	> 100 µM	65.2 µM	38.5 µM	64.5 µM	53.9 µM	38.4 µM	32 µM	65.9 µM	31.2 µM	42.1 µM	> 100 µM	
COC(=O)CCC12CCC(O1)c1ccccc12 (stereo unspecified)	> 100 µM	> 100 µM	> 100 µM	> 100 µM	> 100 µM	> 100 µM	> 100 µM	> 100 µM	> 100 µM	> 100 µM	> 100 µM	
CC[C@H]1OC([C@H](O)C/C=C\C#C[Si](C)(C)C)C/C=C\C[C@H]1O[Si](C)(C)C(C)(C)C (stereo partly specified)	> 100 µM		> 100 µM	> 100 µM	> 100 µM		> 100 µM	> 100 µM	> 100 µM	> 100 µM	> 100 µM	> 100 µM
COC(=O)c1c(C)cccc1/C=C1\Cc2cc(C)cc(C)c2C1=O	51.4 µM	> 100 µM	> 100 µM	48.6 µM		> 100 µM	> 100 µM	> 100 µM	> 100 µM	> 100 µM	> 100 µM	> 100 µM
c1cc2c(c(-c3c4ccccc4nc4ccccc34)c1)CC1(CC2)OCCO1	> 100 µM	> 100 µM	> 100 µM		> 100 µM		> 100 µM		> 100 µM	> 100 µM		> 100 µM
Cc1nnc2n1-c1ccccc1C(=S)N1CSCC21 (stereo unspecified)	> 100 µM	> 100 µM	> 100 µM	> 100 µM	> 100 µM		> 100 µM	> 100 µM	> 100 µM	> 100 µM	> 100 µM	> 100 µM
CC(C)=CCC/C(C)=C/CC/C(C)=C/CC/C(C)=C/CC/C(C)=C\CC/C(C)=C/CC/C(C)=C/CC/C(C)=C/Cc1cc(O)ccc1O	7.4 µM	2.91 µM	36.4 µM	0.857 µM	1.92 µM		2.89 µM	3.81 µM	> 55.2 µM	1.47 µM	> 34.9 µM	
CCC1C(c2cc(OC)c(OC)c(OC)c2)c2cc3c(cc2OC1N1CCOCC1)OCO3 (stereo unspecified)	14.6 µM	55.5 µM	15.6 µM	24.7 µM	> 100 µM		15.5 µM	7.36 µM	61.9 µM	17.4 µM		52.6 µM
CC1(C)CC(=O)c2c(nc3ccc4ccccc4c3c2-c2ccc(NC(=O)CCC(=O)Nc3ccc(-c4c5c(nc6ccc7ccccc7c46)CC(C)(C)CC5=O)cc3)cc2)C1		> 100 µM	> 100 µM		> 100 µM	> 100 µM	> 100 µM	> 100 µM	> 100 µM	> 100 µM	> 100 µM	
Cc1cccc2c1NC(=S)[C@@H]1CCCN1C2=O	> 100 µM	> 100 µM	> 100 µM	> 100 µM	> 100 µM		> 100 µM	> 100 µM	> 100 µM	> 100 µM	> 100 µM	> 100 µM
CC[n+]1c(/C=C/c2ccc(N(CCCl)CCCl)cc2)ccc2cc(NC(=O)/C=C/c3ccccc3)ccc21		1.13 µM	6.03 µM	2.28 µM	> 100 µM	0.389 µM	1.24 µM	1.36 µM	1.09 µM	1.86 µM	0.831 µM	0.81 µM
CN1CN(c2ccccc2)C2(CCN(CCc3csc4ccccc34)CC2)C1=O		28.4 µM	25.3 µM	38 µM	28.1 µM	31.2 µM	33.9 µM	17.8 µM		52.3 µM	46.6 µM	29.1 µM
C[C@H](O)C1CC(Cn2nnc3c(N)ncnc32)C1(C)C (stereo partly specified)	> 100 µM	> 100 µM	> 100 µM	> 100 µM	> 100 µM		> 100 µM		> 100 µM		> 100 µM	
Cc1cccc(NC(=S)Nc2ccccc2Cl)n1	57.8 µM	74.2 µM	> 100 µM	> 100 µM	> 100 µM	> 100 µM	> 100 µM	> 100 µM		> 100 µM	> 100 µM	88.3 µM
Cc1cn(Cc2ccccc2CCl)c(=O)[nH]c1=O	> 100 µM	31.1 µM	43.4 µM	28.2 µM	36.2 µM	14.8 µM	19 µM	79.7 µM		13.9 µM	> 100 µM	57 µM
COc1cc2c(c(OC)c1OC)-c1ccc(SC)cc1[C@H](OC(=O)c1ccccc1)CC2	> 100 µM	> 100 µM	> 100 µM	> 100 µM		0.487 µM	> 33.2 µM			> 100 µM	> 100 µM	
O=[N+]([O-])c1cn[n+]([O-])c2ccccc12		26.2 µM	25.6 µM		19.2 µM	3.59 µM	50.1 µM	35.2 µM	27.3 µM			29.4 µM
CCOC(=O)CCC(NC(=O)c1ccc(N2CCN(c3c(C)nc(N)nc3N)CC2)cc1)C(=O)OCC (stereo unspecified)	> 100 µM	> 55.9 µM	> 100 µM	> 100 µM	> 100 µM		> 100 µM	> 100 µM	> 100 µM	> 100 µM	4.9 µM	> 100 µM
COc1ccc2c(c1)c1c(n2CCN2CCCCC2)-c2ccccc2CC1	42 µM	32.1 µM	31.2 µM		33.2 µM		30.2 µM	17.2 µM	31.8 µM	30.3 µM	47.4 µM	28.3 µM
